# Assay results as given in US20210403573A1, “METHODS AND PHARMACEUTICAL COMPOSITIONS FOR THE TREATMENT OF FIBROSIS WITH AGENTS CAPABLE OF INHIBITING THE ACTIVATION OF MUCOSAL-ASSOCIATED INVARIANT T (MAIT) CELLS” (INSERM (Institut National de la Santé et de la Recherche …, priority 2017, published 2021).
# Molecular target: T1, MR1 (Homo sapiens, UniProt Q95460)
# T1 construct: endogenous in cells; host or cells: human hepatic myofibroblasts (HMF), alone or in co-culture with MAIT cells
# Test: Surface expression of MR1 on hepatic myofibroblasts by flow cytometry
# Assay type: cell-based
# Settings: 1 μM, 2 hrs at 37° C., PE-conjugated anti MR1 antibody (26.5)
# Method: Analysis of Surface Expression of MR1 on Hepatic Myofibroblasts by Flow Cytometry
# Hepatic myofibroblast cultures or HMF/MAIT cell co-cultures were exposed to 1 μM Acetyp 6-formylpterin (Ac 6-FP) (Schircks Laboratories, Switzerland) for 2 hrs at 37° C. Cells were then washed, trypsinised, labeled with PE-conjugated anti MR1 antibody (26.5)/isotype control and subjected to flow cytometric analysis.
# T1 sequence (P61769 21-119): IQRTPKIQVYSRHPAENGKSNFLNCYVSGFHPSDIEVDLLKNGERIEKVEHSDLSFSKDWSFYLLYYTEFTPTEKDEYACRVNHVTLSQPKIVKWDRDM
# T1 sequence (Q95460 23-341): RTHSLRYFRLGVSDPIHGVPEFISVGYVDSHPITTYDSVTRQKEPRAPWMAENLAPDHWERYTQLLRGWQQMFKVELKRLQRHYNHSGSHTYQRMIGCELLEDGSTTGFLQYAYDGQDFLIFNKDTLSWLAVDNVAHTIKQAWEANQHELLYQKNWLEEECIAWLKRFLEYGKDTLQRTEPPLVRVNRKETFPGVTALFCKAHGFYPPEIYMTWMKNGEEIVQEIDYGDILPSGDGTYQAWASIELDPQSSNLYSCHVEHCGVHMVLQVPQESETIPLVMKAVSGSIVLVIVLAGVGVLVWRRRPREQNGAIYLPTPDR
substance,measurement,value
Acetyl-6-formyl-pterin [Acetyl-6-formyl-pterin (6FP)],surface expression of MR1 on hepatic myofibroblasts,enhanced
